Reference: ChEMBL document CHEMBL1157533 (J Med Chem, 2008)
One block for each compound: values may come before it.

Key:
[1] = Terminal half life in monkey plasma at 0.27 mg/kg, iv by cassette assay; assay type: ADME, organism-based, Macaca mulatta; set-up: dose 0.27 mg/kg, route intravenous; settings: rhesus monkey, read-out: beta t1/2 (converted)
[2] = Protein binding in Beagle dog serum; assay type: ADME, cell-free, Canis lupus familiaris; settings: read-out: PPB (converted)
[3] = Total clearance in rat at 1.0 mg/kg, iv; assay type: ADME, organism-based; set-up: dose 1 mg/kg, route intravenous; settings: in vivo
[4] = Cmax in rat at 1.0 mg/kg, po; assay type: ADME, organism-based; set-up: dose 1 mg/kg, route oral; settings: in vivo
[5] = target: Beta-3 adrenergic receptor (Canis lupus familiaris, UniProt O02662); assay: Agonist activity at dog recombinant beta3 adrenergic receptor expressed in CHO cells assessed as cAMP accumulation by enzyme immuno assay; assay type: functional, cell-based
[6] = target: Beta-1 adrenergic receptor (Homo sapiens, UniProt P08588); assay: Agonist activity at human recombinant beta-1 adrenergic receptor expressed in CHO cells assessed as cAMP accumulation by enzyme immuno assay; assay type: functional, cell-based
[7] = Bioavailability in dog at 0.32 mg/kg, po; assay type: ADME, organism-based, Canis lupus familiaris; settings: in vivo
[8] = Bioavailability in rat at 1.0 mg/kg, po; assay type: ADME, organism-based; settings: in vivo
[9] = Cmax in dog at 0.32 mg/kg, po; assay type: ADME, organism-based, Canis lupus familiaris; set-up: dose 0.32 mg/kg, route oral; settings: in vivo
[10] = Terminal half life in rat plasma at 1.0 mg/kg, iv; assay type: ADME, organism-based; set-up: dose 1 mg/kg, route intravenous; settings: read-out: beta t1/2 (converted)
[11] = species on record: Canis familiaris; assay: cells; settings: Canis lupus familiaris, 3 h
Description: Inhibition of carbachol-induced increase in intravesical pressure in intraduodenally dosed Beagle dog OAB model for 180 mins

[12] = Total clearance in dog at 0.32 mg/kg, iv; assay type: ADME, organism-based, Canis lupus familiaris; set-up: dose 0.32 mg/kg, route intravenous; settings: in vivo
[13] = Cmax in monkey at 0.27 mg/kg, po by cassette assay; assay type: ADME, organism-based, Macaca mulatta; set-up: dose 0.27 mg/kg, route oral; settings: rhesus monkey, in vivo
[14] = Total clearance in monkey at 0.27 mg/kg, iv by cassette assay; assay type: ADME, organism-based, Macaca mulatta; set-up: dose 0.27 mg/kg, route intravenous; settings: rhesus monkey, in vivo
[15] = target: Beta-3 adrenergic receptor (Homo sapiens, UniProt P13945); assay: Agonist activity at human recombinant beta3 adrenergic receptor expressed in CHO cells assessed as cAMP accumulation by enzyme immuno assay; assay type: functional, cell-based
[16] = target: Beta-2 adrenergic receptor (Homo sapiens, UniProt P07550); assay: Agonist activity at human recombinant beta2 adrenergic receptor expressed in CHO cells assessed as cAMP accumulation by enzyme immuno assay; assay type: functional, cell-based
[17] = Bioavailability in monkey at 0.27 mg/kg, po by cassette assay; assay type: ADME, organism-based, Macaca mulatta; settings: rhesus monkey, in vivo
[18] = AUC (0 to 24 hrs) in monkey at 0.27 mg/kg, po by cassette assay; assay type: ADME, organism-based, Macaca mulatta; set-up: time < 24 hr, dose 0.27 mg/kg, route oral; settings: rhesus monkey, plasma
[19] = Terminal half life in dog plasma at 0.32 mg/kg, iv; assay type: ADME, organism-based, Canis lupus familiaris; set-up: dose 0.32 mg/kg, route intravenous; settings: read-out: beta t1/2 (converted)
[20] = AUC (0 to 24 hrs) in rat at 1.0 mg/kg, po; assay type: ADME, organism-based; set-up: time < 24 hr, dose 1 mg/kg, route oral; settings: plasma
[21] = AUC (0 to 24 hrs) in dog at 0.32 mg/kg, po; assay type: ADME, organism-based, Canis lupus familiaris; set-up: time < 24 hr, dose 0.32 mg/kg, route oral; settings: plasma
[22] = AUC (0 to 24 hrs) in rat at 1.0 mg/kg, po by cassette assay; assay type: ADME, organism-based; set-up: time < 24 hr, dose 1 mg/kg, route oral; settings: plasma
[23] = AUC (0 to 24 hrs) in dog at 0.1 mg/kg, po; assay type: ADME, organism-based, Canis lupus familiaris; set-up: time < 24 hr, dose 0.1 mg/kg, route oral; settings: plasma
[24] = Terminal half life in dog at 0.1 mg/kg, iv; assay type: ADME, organism-based, Canis lupus familiaris; set-up: dose 0.1 mg/kg, route intravenous; settings: in vivo, read-out: beta t1/2 (converted)
[25] = Bioavailability in dog at 0.1 mg/kg, po; assay type: ADME, organism-based, Canis lupus familiaris; settings: in vivo
[26] = Bioavailability in monkey at 0.32 mg/kg, po by cassette assay; assay type: ADME, organism-based, Macaca mulatta; settings: rhesus monkey, in vivo
[27] = Total clearance in dog at 0.1 mg/kg, iv; assay type: ADME, organism-based, Canis lupus familiaris; set-up: dose 0.1 mg/kg, route intravenous; settings: in vivo
[28] = AUC (0 to 2 hrs) in Beagle dog at 0.1 mg/kg, po by cassette assay; assay type: ADME, organism-based, Canis lupus familiaris; set-up: time < 2 hr, dose 0.1 mg/kg, route oral; settings: plasma
[29] = Total clearance in Beagle dog at 0.1 mg/kg, iv by cassette assay; assay type: ADME, organism-based, Canis lupus familiaris; set-up: dose 0.1 mg/kg, route intravenous; settings: in vivo
[30] = Volume of distribution at steady state in Beagle dog at 0.1 mg/kg, iv by cassette assay; assay type: ADME, organism-based, Canis lupus familiaris; set-up: dose 0.1 mg/kg, route intravenous; settings: in vivo, read-out: Vdss
[31] = Metabolic stability assessed as intrinsic clearance in monkey liver microsome in presence of NADPH-generating system; assay type: ADME, Macaca mulatta; settings: rhesus monkey, liver microsomes
[32] = Cmax in dog at 0.1 mg/kg, po; assay type: ADME, organism-based, Canis lupus familiaris; set-up: dose 0.1 mg/kg, route oral; settings: in vivo
[33] = Cmax in rat at 1.0 mg/kg, po by cassette assay; assay type: ADME, organism-based; set-up: dose 1 mg/kg, route oral; settings: in vivo
[34] = Metabolic stability assessed as intrinsic clearance in human liver microsome in presence of NADPH-generating system; assay type: ADME; settings: liver microsomes
[35] = Terminal half life in Beagle dog at 0.1 mg/kg, iv by cassette assay; assay type: ADME, organism-based, Canis lupus familiaris; set-up: dose 0.1 mg/kg, route intravenous; settings: in vivo, read-out: beta t1/2 (converted)
[36] = Total clearance in monkey at 0.32 mg/kg, iv by cassette assay; assay type: ADME, organism-based, Macaca mulatta; set-up: dose 0.32 mg/kg, route intravenous; settings: rhesus monkey, in vivo
[37] = AUC (0 to 24 hrs) in Beagle dog at 0.1 mg/kg, iv by cassette assay; assay type: ADME, organism-based, Canis lupus familiaris; set-up: time < 24 hr, dose 0.1 mg/kg, route intravenous; settings: plasma
[38] = Metabolic stability assessed as intrinsic clearance in dog liver microsome in presence of NADPH-generating system; assay type: ADME, Canis lupus familiaris; settings: liver microsomes
[39] = Bioavailability in rat at 1.0 mg/kg, po by cassette assay; assay type: ADME, organism-based; settings: in vivo
[40] = Total clearance in rat at 1.0 mg/kg, iv by cassette assay; assay type: ADME, organism-based; set-up: dose 1 mg/kg, route intravenous; settings: in vivo
[41] = Bioavailability in Beagle dog at 0.1 mg/kg, po by cassette assay; assay type: ADME, organism-based, Canis lupus familiaris; settings: in vivo
[42] = AUC (0 to 24 hrs) in monkey at 0.32 mg/kg, po by cassette assay; assay type: ADME, organism-based, Macaca mulatta; set-up: time < 24 hr, dose 0.32 mg/kg, route oral; settings: rhesus monkey, plasma
[43] = Metabolic stability assessed as intrinsic clearance in rat liver microsome in presence of NADPH-generating system; assay type: ADME; settings: liver microsomes

Chain of Beta-3 adrenergic receptor (Canis lupus familiaris, UniProt O02662) (O02662 whole entry): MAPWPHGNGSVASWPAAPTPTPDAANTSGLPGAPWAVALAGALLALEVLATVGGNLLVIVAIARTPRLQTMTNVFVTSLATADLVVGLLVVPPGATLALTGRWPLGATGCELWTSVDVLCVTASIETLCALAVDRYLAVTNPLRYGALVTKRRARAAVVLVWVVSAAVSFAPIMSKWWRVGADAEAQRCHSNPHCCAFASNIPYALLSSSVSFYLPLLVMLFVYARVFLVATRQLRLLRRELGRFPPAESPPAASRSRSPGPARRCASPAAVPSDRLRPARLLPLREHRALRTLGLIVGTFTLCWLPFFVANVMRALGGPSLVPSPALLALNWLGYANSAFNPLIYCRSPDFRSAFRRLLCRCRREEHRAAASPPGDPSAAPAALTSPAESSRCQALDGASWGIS
Chain of Beta-1 adrenergic receptor (P08588 whole entry): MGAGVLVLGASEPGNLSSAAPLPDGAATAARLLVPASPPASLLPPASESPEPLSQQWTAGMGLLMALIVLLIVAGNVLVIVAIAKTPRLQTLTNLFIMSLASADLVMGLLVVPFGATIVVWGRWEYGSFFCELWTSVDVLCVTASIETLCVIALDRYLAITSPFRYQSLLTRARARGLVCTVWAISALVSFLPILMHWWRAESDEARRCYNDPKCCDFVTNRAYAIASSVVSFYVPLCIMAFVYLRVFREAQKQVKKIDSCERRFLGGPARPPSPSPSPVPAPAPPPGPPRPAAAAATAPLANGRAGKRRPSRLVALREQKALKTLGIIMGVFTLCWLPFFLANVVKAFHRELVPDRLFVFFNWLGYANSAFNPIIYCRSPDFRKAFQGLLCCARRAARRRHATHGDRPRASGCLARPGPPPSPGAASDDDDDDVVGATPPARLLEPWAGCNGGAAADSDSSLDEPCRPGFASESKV
Chain of Beta-3 adrenergic receptor (Homo sapiens, UniProt P13945) (P13945 whole entry): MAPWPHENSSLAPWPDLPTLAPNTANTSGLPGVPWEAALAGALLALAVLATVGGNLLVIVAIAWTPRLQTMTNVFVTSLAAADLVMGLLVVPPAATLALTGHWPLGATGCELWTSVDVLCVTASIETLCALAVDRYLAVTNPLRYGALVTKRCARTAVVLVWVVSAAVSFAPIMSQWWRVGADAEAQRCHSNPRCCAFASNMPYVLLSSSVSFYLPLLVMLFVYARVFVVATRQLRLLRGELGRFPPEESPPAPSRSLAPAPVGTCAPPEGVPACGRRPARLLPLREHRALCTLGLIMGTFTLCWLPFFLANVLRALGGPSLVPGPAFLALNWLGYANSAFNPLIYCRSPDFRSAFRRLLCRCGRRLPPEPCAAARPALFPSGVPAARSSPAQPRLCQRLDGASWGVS
Chain of Beta-2 adrenergic receptor (P07550 whole entry): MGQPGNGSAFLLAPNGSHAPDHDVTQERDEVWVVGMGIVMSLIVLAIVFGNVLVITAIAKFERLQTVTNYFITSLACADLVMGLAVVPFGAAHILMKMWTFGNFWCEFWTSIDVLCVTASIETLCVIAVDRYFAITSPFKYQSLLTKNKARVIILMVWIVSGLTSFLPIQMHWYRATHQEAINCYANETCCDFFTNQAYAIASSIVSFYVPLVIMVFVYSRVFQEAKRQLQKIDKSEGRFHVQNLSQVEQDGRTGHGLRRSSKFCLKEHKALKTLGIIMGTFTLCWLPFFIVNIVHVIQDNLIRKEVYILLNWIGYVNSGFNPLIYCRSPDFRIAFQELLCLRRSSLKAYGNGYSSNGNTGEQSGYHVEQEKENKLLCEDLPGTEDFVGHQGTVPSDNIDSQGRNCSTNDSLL

half-life [1]: 2.2 h
fraction unbound [2]: 0.23
clearance [3]: 16 mL/min/kg
Cmax [4]: 172 ng/mL
EC50 [5]: 11 nM
EC50 [6]: > 1000 nM
bioavailability [7]: 63.2%
bioavailability [8]: 61.5%
Cmax [9]: 27 ng/mL
half-life [10]: 3.5 h
EC50 [11]: 7.8 nM
clearance [12]: 6.4 mL/min/kg
Cmax [13]: 11 ng/mL
clearance [14]: 22.8 mL/min/kg
EC50 [15]: 1.5 nM
EC50 [16]: > 10000 nM
bioavailability [17]: 25.7%
AUC(0-t) at 24 h [18]: 77.5 ng·h/mL
half-life [19]: 9.9 h
AUC(0-t) at 24 h [20]: 548 ng·h/mL
AUC(0-t) at 24 h [21]: 461 ng·h/mL
Compound: CC(C)Oc1cc(-c2ccc(CCNC[C@H](O)c3cccnc3)cc2)ccc1C(=O)O
ED50 [11]: 0.0284 mg/kg

Compound: CC(C)Oc1cc(-c2ccc(C[C@@H](C)NC[C@H](O)c3ccccc3)cc2)ccc1C(=O)O
AUC(0-t) at 24 h [22]: 1640 ng·h/mL
AUC(0-t) at 24 h [23]: 162 ng·h/mL
fraction unbound [2]: 0.14
half-life [24]: 14.3 h
EC50 [5]: 0.19 nM
EC50 [6]: 86 nM
bioavailability [25]: 79.6%
bioavailability [26]: 52.8%
clearance [27]: 7.83 mL/min/kg
AUC(0-t) at 2 h [28]: 106 ng·h/mL
clearance [29]: 6.5 mL/min/kg
Vd [30]: 5.4 L/kg
EC50 [11]: 2.5 nM
ED50 [11]: 0.0035 mg/kg
CLint scaled [31]: < 1 mL/min/kg
Cmax [32]: 8.5 ng/mL
Cmax [33]: 116 ng/mL
CLint scaled [34]: < 0.1 mL/min/kg
half-life [35]: 15.5 h
clearance [36]: 1.8 mL/min/kg
AUC(0-t) at 24 h [37]: 260 ng·h/mL
CLint scaled [38]: < 0.1 mL/min/kg
bioavailability [39]: 69.7%
EC50 [15]: 0.091 nM
clearance [40]: 7.2 mL/min/kg
EC50 [16]: > 10000 nM
bioavailability [41]: 41%
AUC(0-t) at 24 h [42]: 1300 ng·h/mL
CLint scaled [43]: < 0.1 mL/min/kg
